Reference: US7915276B2, “Berberrubine derivatives having antifungal activities” (priority 2006, dated 2011)

What was measured:
[1] = biological target: T1, chitin synthase 1 of Candida albicans chs2 Δ chs 3 Δ (Candida albicans, UniProt P23316); test: In vitro enzyme assay for chitin synthase 1 of Candida albicans (enzyme 1); type: biochemical; conditions: relative to polyoxin D (50% inhibitory activity = value 5)
T1 construct: Crude enzyme was prepared using the Candida albicans chs2 Δ chs 3 Δ mutant; endogenous in cells; host or cells: Candida albicans chs2Δ/chs2Δ chs3Δ/chs3Δ mutant; 130,000 x g membrane pellet
How it was run: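 Trypsin-activated crude membrane chitin synthase 1 from C. albicans chs2Δ chs3Δ was incubated 90 min at 30 °C with 1.1 mM UDP-[14C]GlcNAc and 2 mM cobalt acetate in Tris-HCl pH 7.5. Filtered TCA precipitate was counted by scintillation; values are scores 1–8 against polyoxin D (5 = same concentration).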

[2] = tested on: Cryptococcus neoformans ATCC 36556; test: In vitro antifungal activity (MIC), NCCLS method; type: cell-based; conditions: RPMI 1640 medium, 72 hours
Source text: (§1) Candida albicans ATCC 10231, Candida lusitaniae ATCC 42720, Candida krusei ATCC 6258, Candida tropicalis ATCC 13803, Candida glabrata ATCC 48435, Candida parapsilosis ATCC 34136, Cryptococcus neoformans ATCC 36556, Aspergillus fumigatus ATCC 16424, Aspergillus flavus ATCC 64025, Aspergillus terreus ATCC 46941 and Mucor ramosissimus ATCC 90286 strains for the MIC (minimum inhibitory concentration) measurement were obtained from ATCC (American Type Culture Collection) in the U.S. The Candida albicans A207(clinical isolate) strain was used by isolating it from the patients.
(§2) The determination of MIC was performed according to the NCCLS (National Committee for Clinical Laboratory Standard) method. Each test sample solution was diluted two-fold and inoculated with a fungal suspension to reach a final inoculum size of 5×10^2 to 2.5×10^3 cell/mL. The Cryptococcus neoformans strain was cultured in the RPMI 1640 medium for 72 hours. Other strains were cultured for 48 hours.

[3] = tested on: Aspergillus flavus ATCC 64025; test: In vitro antifungal activity (MIC), NCCLS method; type: cell-based; conditions: 48 hours
Source text: as §1, §2

[4] = tested on: Mucor ramosissimus ATCC 90286; test: In vitro antifungal activity (MIC), NCCLS method; type: cell-based; conditions: 48 hours
Source text: as §1, §2

[5] = tested on: Candida glabrata ATCC 48435; test: In vitro antifungal activity (MIC), NCCLS method; type: cell-based; conditions: Candida glabrata ATCC 48435; 48 hours
Source text: as §1, §2

[6] = tested on: Candida albicans ATCC 10231; test: In vitro antifungal activity (MIC), NCCLS method; type: cell-based; conditions: 48 hours
Source text: as §1, §2

[7] = tested on: Candida tropicalis ATCC 13803; test: In vitro antifungal activity (MIC), NCCLS method; type: cell-based; conditions: 48 hours
Source text: as §1, §2

[8] = tested on: Candida krusei ATCC 6258; test: In vitro antifungal activity (MIC), NCCLS method; type: cell-based; conditions: 48 hours
Source text: as §1, §2

[9] = tested on: Candida albicans A207 (clinical isolate); test: In vitro antifungal activity (MIC), NCCLS method; type: cell-based; conditions: 48 hours
Source text: as §1, §2

[10] = tested on: Aspergillus terreus ATCC 46941; test: In vitro antifungal activity (MIC), NCCLS method; type: cell-based; conditions: 48 hours
Source text: as §1, §2

[11] = tested on: Aspergillus fumigatus ATCC 16424; test: In vitro antifungal activity (MIC), NCCLS method; type: cell-based; conditions: 48 hours
Source text: as §1, §2

[12] = tested on: Candida lusitaniae ATCC 42720; test: In vitro antifungal activity (MIC), NCCLS method; type: cell-based; conditions: 48 hours
Source text: as §1, §2

[13] = tested on: Candida parapsilosis ATCC 34136; test: In vitro antifungal activity (MIC), NCCLS method; type: cell-based; conditions: Candida parapsilosis ATCC 34136; 48 hours
Source text: as §1, §2

[14] = biological target: T2, chitin synthase 2 of Saccharomyces cerevisiae ECY38-38A(pAS6) (Saccharomyces cerevisiae, UniProt P14180); test: In vitro enzyme assay for chitin synthase 2 of Saccharomyces cerevisiae (enzyme 2); type: biochemical; conditions: relative to polyoxin D (50% inhibitory activity = value 5)
T2 construct: made in house; host or cells: Saccharomyces cerevisiae ECY38-38A (chs1-23 chs2::LEU2 cal1/csd2) carrying plasmid pAS6, grown in galactose medium; 130,000 x g membrane pellet
How it was run: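 Values are scores: 5 means 50% inhibition at the same concentration as polyoxin D, lower scores 2- to 16-fold higher concentration, higher scores ½ to ⅛. Radiolabel from 1.1 mM UDP-[14C]-GlcNAc was incorporated into TCA-insoluble chitin over 90 min at 30 °C (pH 7.5 Tris, 2 mM Co2+). The enzyme was a trypsin-activated membrane fraction from CHS2-only S. cerevisiae ECY38-38A(pAS6).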

T2 sequence (P14180 whole entry): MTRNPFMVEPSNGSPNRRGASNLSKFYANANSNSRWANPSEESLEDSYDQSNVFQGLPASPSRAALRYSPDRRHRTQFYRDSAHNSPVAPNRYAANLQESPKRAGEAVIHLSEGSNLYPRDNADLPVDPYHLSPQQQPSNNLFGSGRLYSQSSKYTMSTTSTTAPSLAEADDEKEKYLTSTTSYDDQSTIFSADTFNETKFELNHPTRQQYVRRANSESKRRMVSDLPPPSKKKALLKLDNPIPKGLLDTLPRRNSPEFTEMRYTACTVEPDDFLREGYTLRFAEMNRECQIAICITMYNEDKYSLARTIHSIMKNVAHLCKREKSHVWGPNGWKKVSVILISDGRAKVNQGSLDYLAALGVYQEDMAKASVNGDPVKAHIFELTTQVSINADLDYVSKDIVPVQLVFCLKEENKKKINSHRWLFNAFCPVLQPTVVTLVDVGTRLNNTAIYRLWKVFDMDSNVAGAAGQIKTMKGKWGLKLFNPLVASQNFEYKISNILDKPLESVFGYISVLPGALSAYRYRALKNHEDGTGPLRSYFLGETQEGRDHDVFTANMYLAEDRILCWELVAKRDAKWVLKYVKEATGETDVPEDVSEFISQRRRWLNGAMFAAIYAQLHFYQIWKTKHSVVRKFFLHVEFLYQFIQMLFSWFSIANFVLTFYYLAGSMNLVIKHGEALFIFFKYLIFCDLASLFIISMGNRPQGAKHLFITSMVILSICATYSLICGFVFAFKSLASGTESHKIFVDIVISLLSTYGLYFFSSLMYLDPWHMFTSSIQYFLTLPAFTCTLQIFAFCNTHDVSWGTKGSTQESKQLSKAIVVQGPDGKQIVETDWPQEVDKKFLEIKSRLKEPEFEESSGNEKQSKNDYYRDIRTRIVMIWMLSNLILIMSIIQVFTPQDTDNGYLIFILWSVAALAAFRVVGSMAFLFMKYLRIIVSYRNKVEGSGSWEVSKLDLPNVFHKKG
T1 sequence (P23316 whole entry, stated change not applied): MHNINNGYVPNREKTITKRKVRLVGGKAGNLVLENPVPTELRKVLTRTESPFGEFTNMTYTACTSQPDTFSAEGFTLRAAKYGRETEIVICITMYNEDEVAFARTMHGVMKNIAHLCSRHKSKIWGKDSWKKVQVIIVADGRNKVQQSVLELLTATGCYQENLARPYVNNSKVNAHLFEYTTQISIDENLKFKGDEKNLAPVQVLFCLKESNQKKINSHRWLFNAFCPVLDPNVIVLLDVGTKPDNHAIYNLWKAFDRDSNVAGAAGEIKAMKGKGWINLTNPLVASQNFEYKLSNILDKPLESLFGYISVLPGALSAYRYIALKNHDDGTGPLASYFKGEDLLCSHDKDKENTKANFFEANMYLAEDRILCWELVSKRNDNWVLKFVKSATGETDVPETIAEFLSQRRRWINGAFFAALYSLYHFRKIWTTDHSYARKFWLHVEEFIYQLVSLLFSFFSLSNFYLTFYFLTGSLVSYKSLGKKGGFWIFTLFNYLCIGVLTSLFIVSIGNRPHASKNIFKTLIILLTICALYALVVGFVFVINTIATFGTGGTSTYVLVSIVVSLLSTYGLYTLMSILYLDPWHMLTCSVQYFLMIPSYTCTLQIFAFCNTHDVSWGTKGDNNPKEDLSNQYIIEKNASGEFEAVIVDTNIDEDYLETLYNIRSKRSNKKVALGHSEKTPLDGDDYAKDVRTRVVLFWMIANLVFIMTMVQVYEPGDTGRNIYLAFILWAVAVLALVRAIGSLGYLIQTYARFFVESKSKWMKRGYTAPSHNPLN

Compound	Relative activity Enzyme 1 [1]	MIC (minimum inhibitory concentration) [2]	MIC (minimum inhibitory concentration) [3]	MIC (minimum inhibitory concentration) [4]	MIC (minimum inhibitory concentration) [5]	MIC (minimum inhibitory concentration) [6]	MIC (minimum inhibitory concentration) [7]	MIC (minimum inhibitory concentration) [8]	MIC (minimum inhibitory concentration) [9]	MIC (minimum inhibitory concentration) [10]	MIC (minimum inhibitory concentration) [11]	MIC (minimum inhibitory concentration) [12]	MIC (minimum inhibitory concentration) [13]	Relative activity Enzyme 2 [14]
COc1ccc2c(Cc3ccc(C(C)C)cc3)c3[n+](cc2c1OCCCCCCCl)CCc1cc2c(cc1-3)OCO2.[I-] [Compound No. 22, 13-(4-Isopropylbenzyl)-9-O-(6-chlorohexyl)berberrubine iodide]	2 (Compounds having the inhibitory activity at 2-fold, 4-fold, 8-fold and 16-fold higher concentrations than that of polyoxin D were given the values of 4, 3, 2 and 1, respectively)	1 µg/mL	8 µg/mL	4 µg/mL	2 µg/mL	0.5 µg/mL	0.5 µg/mL	1 µg/mL	0.5 µg/mL	8 µg/mL	2 µg/mL	2 µg/mL	2 µg/mL	5 (A compound having the same inhibitory activity as that of polyoxin D at the same concentration was given the value 5)
13-(4-tert-Butylbenzyl)-9-O-crotylberberrubine chloride [Compound No. 46]	2 (Compounds having the inhibitory activity at 2-fold, 4-fold, 8-fold and 16-fold higher concentrations than that of polyoxin D were given the values of 4, 3, 2 and 1, respectively)	1 µg/mL	8 µg/mL	4 µg/mL	4 µg/mL	0.5 µg/mL	0.5 µg/mL	1 µg/mL	0.5 µg/mL	4 µg/mL	2 µg/mL	1 µg/mL	4 µg/mL	6 (compounds having the inhibitory activity at ½, ¼ and ⅛ lower concentrations than that of polyoxin D were given the values of 6, 7 and 8, respectively)
13-(4-tert-Butylbenzyl)-9-O-(4-isopropylbenzyl)berberrubine bromide [Compound No. 16]	3 (Compounds having the inhibitory activity at 2-fold, 4-fold, 8-fold and 16-fold higher concentrations than that of polyoxin D were given the values of 4, 3, 2 and 1, respectively)	2 µg/mL	8 µg/mL	8 µg/mL	2 µg/mL	1 µg/mL	1 µg/mL	2 µg/mL	1 µg/mL	8 µg/mL	4 µg/mL	4 µg/mL	8 µg/mL	5 (A compound having the same inhibitory activity as that of polyoxin D at the same concentration was given the value 5)
13-(4-Isopropylbenzyl)-9-O-octylberberrubine chloride [Compound No. 52]	2 (Compounds having the inhibitory activity at 2-fold, 4-fold, 8-fold and 16-fold higher concentrations than that of polyoxin D were given the values of 4, 3, 2 and 1, respectively)	0.5 µg/mL	4 µg/mL	2 µg/mL	1 µg/mL	0.25 µg/mL	0.125 µg/mL	1 µg/mL	0.25 µg/mL	4 µg/mL	2 µg/mL	0.5 µg/mL	1 µg/mL	6 (compounds having the inhibitory activity at ½, ¼ and ⅛ lower concentrations than that of polyoxin D were given the values of 6, 7 and 8, respectively)
13-(4-Isopropylbenzyl)-9-O-octylberberrubine iodide [Compound No. 20]	3 (Compounds having the inhibitory activity at 2-fold, 4-fold, 8-fold and 16-fold higher concentrations than that of polyoxin D were given the values of 4, 3, 2 and 1, respectively)	1 µg/mL	4 µg/mL	2 µg/mL	2 µg/mL	0.25 µg/mL	0.125 µg/mL	1 µg/mL	0.25 µg/mL	4 µg/mL	2 µg/mL	0.5 µg/mL	2 µg/mL	5 (A compound having the same inhibitory activity as that of polyoxin D at the same concentration was given the value 5)
13-(4-Isopropylbenzyl)-9-O-allylberberrubine iodide [Compound No. 23]	2 (Compounds having the inhibitory activity at 2-fold, 4-fold, 8-fold and 16-fold higher concentrations than that of polyoxin D were given the values of 4, 3, 2 and 1, respectively)	2 µg/mL	8 µg/mL	4 µg/mL	8 µg/mL	1 µg/mL	1 µg/mL	2 µg/mL	1 µg/mL	8 µg/mL	8 µg/mL	2 µg/mL	4 µg/mL	5 (A compound having the same inhibitory activity as that of polyoxin D at the same concentration was given the value 5)
13-(4-Isopropylbenzyl)-9-O-hexylberberrubine iodide [Compound No. 19]	4 (Compounds having the inhibitory activity at 2-fold, 4-fold, 8-fold and 16-fold higher concentrations than that of polyoxin D were given the values of 4, 3, 2 and 1, respectively)	1 µg/mL	8 µg/mL	4 µg/mL	2 µg/mL	0.25 µg/mL	0.125 µg/mL	1 µg/mL	0.25 µg/mL	8 µg/mL	2 µg/mL	1 µg/mL	2 µg/mL	6 (compounds having the inhibitory activity at ½, ¼ and ⅛ lower concentrations than that of polyoxin D were given the values of 6, 7 and 8, respectively)
